Series [1] concerns the target T1, E. coli purine nucleoside phosphorylase (PNP) (Escherichia coli, UniProt P0ABP8).
T1 construct: gene deoD
T1 sequence (P0ABP8 2-239): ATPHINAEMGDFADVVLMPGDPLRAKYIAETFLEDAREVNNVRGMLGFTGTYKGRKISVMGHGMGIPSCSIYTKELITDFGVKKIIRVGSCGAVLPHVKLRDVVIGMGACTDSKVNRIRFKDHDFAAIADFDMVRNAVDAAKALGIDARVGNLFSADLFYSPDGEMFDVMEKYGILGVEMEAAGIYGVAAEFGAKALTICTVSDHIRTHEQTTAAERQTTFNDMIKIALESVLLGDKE
As to the kind of experiment: HPLC inosine phosphorolysis assay with recombinant enzyme, non-competitive inhibition kinetics. Type of series: biochemical.

Substrate in the series “purified protein”: OC[C@H]1O[C@@H](n2cnc3c(O)ncnc32)[C@H](O)[C@@H]1O
The series can be described thus: purified protein. Type of series: biochemical, Escherichia coli. Conditions: phosphate active site.

For `Nc1ccncc1-c1cnn([C@@H]2C[C@H](O)[C@@H](O)[C@H]2O)c1` [compound 1, 1-(2′,3′,4′-Trihydroxycyclopent-1′-yl)-4-(4-aminopyridin-3-yl)pyrazole], in series [1], the Ki (in general, the equilibrium dissociation constant of an inhibitor or competing ligand from its target) was 17 ± 4 mM.

In the case of `Nc1ncccc1-c1cnn([C@@H]2C[C@H](O)[C@@H](O)[C@H]2O)c1` [compound 2, 1-(2′,3′,4′-Trihydroxycyclopent-1′-yl)-4-(2-aminopyridin-3-yl)pyrazole], the Ki in series [1] was found to be 14 ± 1 mM. Still for that read-out and setting: the figure for `Nc1ncncc1-c1cnn([C@@H]2C[C@H](O)[C@@H](O)[C@H]2O)c1` [compound 3, 1-(2′,3′,4′-Trihydroxycyclopent-1′-yl)-4-(4-aminopyrimidin-3-yl)pyrazole] is 24 ± 3 mM.

B1: E. coli purine nucleoside phosphorylase (PNP) (Escherichia coli K-12) (protein)
chain: T1 sequence (P0ABP8 2-239)
Consider B1, for which, in the series “purified protein”, the Km (in general, the substrate concentration at which the rate is half of its maximum) was 130 ± 10 µM and the kcat (commonly the maximal rate divided by the concentration of active sites) worked out at 900 ± 60 s⁻¹.
